# Test results published in PubChem BioAssay AID378.
# Molecular target: L-aminoadipate-semialdehyde dehydrogenase-phosphopantetheinyl transferase (Homo sapiens) (UniProt Q9NRN7)
# Assay: PubChem AID 378
# Details: purified protein DSF, SYPRO orange Tm shift, at 10 µM, protein 2 µM, pH 5.5, stronger effect = higher value
# [1] = buffer 10 mM NaHPO4, with 150 mM NaCl, 2 mM MgCl2
# [2] = buffer 10 mM NaH2PO4, NaCl 150 mM, MgCl2 2000 µM
# L-aminoadipate-semialdehyde dehydrogenase-phosphopantetheinyl transferase (Homo sapiens), sequence (Q9NRN7 whole entry, looked up): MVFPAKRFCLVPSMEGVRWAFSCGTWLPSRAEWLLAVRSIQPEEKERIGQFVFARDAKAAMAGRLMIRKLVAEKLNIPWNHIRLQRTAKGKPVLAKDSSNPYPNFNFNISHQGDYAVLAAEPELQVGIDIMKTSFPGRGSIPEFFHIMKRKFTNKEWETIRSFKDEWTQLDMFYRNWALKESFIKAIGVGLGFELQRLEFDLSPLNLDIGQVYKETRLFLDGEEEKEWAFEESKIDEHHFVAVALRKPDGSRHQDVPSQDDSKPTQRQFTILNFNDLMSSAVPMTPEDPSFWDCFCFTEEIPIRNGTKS
Tm shift [2],Structure (SMILES),Tm shift [1]
–,O=P(O)(O)C(O)(Cn1ccnc1)P(=O)(O)O,5.2 Celsius
–,O=[P+](O)C(O)(Cc1cccnc1)P(=O)(O)O (centres undefined),4.4 Celsius
2.9 Celsius,CC(C)(COP(=O)(O)OP(=O)(O)OCC1OC(n2cnc3c(N)ncnc32)C(O)C1OP(=O)(O)O)C(O)C(=O)NCCC(=O)NCCS (centres undefined),–
3.1 Celsius,CC(O)CC(=O)SCCNC(=O)CCNC(=O)C(O)C(C)(C)COP(=O)(O)OP(=O)(O)OCC1OC(n2cnc3c(N)ncnc32)C(O)C1OP(=O)(O)O (centres undefined),–
